The record followed here is ChEMBL document CHEMBL1146874, “Metabolism investigation leading to novel drug design 2: orally active prostacyclin mimetics. Part 5” (Bioorg Med Chem Lett, 2006).

One data set is filed under the species Homo sapiens. Description: Inhibition of ADP-induced platelet aggregation in human platelet rich plasma. It counts as functional, organism-based.
The species entered for data set [1] is Rattus norvegicus. Description: Inhibition of ADP-induced platelet aggregation in rat platelet rich plasma. It counts as functional, organism-based.
Data set [2] is described as follows: Intrinsic clearance in rat liver microsomes after 60 mins. It counts as ADME, Microsome.
For data set [3], the system named is Rattus norvegicus. Description: AUC in rat at 10 mg/kg, po. It counts as ADME, organism-based, Plasma. Further details: dose 10 mg/kg, route oral. Particulars: in vivo.
Data set [4] in a line: Total clearance in rat at 10 mg/kg, iv. It counts as ADME, organism-based. Further details: dose 10 mg/kg, route intravenous. Particulars: in vivo.
Data set [5] in a line: Bioavailability in rat at 10 mg/kg, […]. It counts as ADME, organism-based. The conditions noted are these: in vivo.
Data set [6] can be described thus: Cmax in rat at 10 mg/kg, po. It counts as ADME, organism-based. Further details: dose 10 mg/kg, route oral. The conditions noted are these: in vivo.
Data set [7] can be described thus: Beta half life in rat at 10 mg/kg, iv. It counts as ADME, organism-based. Particulars: in vivo. Further details: dose 10 mg/kg, route intravenous.
Data set [8] concerns Rattus norvegicus. Description: Stability in orally dosed rat measured as glucuronide of M2 level in bile. The conditions noted are these: in vivo, po. It counts as ADME, organism-based.
In data set [9] the test system is Rattus norvegicus. The data set can be described thus: Stability in orally dosed rat measured as M2 level in bile. It counts as ADME, organism-based. The conditions noted are these: in vivo, po.
Data set [10] can be described thus: Half life in human at 12.5 ug, po. It counts as ADME, organism-based. Particulars: in vivo.
Data set [11] can be described thus: Cmax in human at 12.5 ug, po. Particulars: in vivo. It counts as ADME, organism-based. Further details: dose 12.5 ug, route oral.
The nature of data set [12]: Blood to plasma ratio in human at 12.5 ug, po. The conditions noted are these: read-out: BPR. It counts as ADME, organism-based.
Data set [13] in a line: AUC in human at 12.5 ug, po. It counts as ADME, organism-based. Particulars: plasma.
Data set [14] can be described thus: Bioavailability in human at 12.5 ug, po. It counts as ADME, organism-based. The conditions noted are these: in vivo.

One may read the IC50 as the concentration needed to halve the response being measured. Lower therefore signals higher potency. As to `O=C(O)COc1cccc2c1C(O)C[C@](O)(COC(=O)N(c1ccccc1)c1ccccc1)C2` (stereo partly drawn), the IC50 was 198 nM in the data set listed under Homo sapiens and more than 10000 nM in the data set filed under Rattus norvegicus [1].
In general, CLint scaled refers to the capacity of the preparation to metabolise the compound, expressed as a volume cleared per time. Low readings indicate slow turnover, high ones rapid turnover. In [2], `O=C(O)COc1cccc2c1CC[C@](O)(COC(=O)N(c1ccccc1F)c1ccccc1F)C2` showed a CLint scaled of 44.8 mL/min/kg. For the same molecule, in the data set filed under Homo sapiens, the IC50 turned out to be 63 nM.
The AUC is the area under the concentration-time curve, a measure of exposure. For orientation: clearance means the rate of elimination divided by the concentration. A high value points to efficient removal. One may read the bioavailability as the share of a dose that reaches the circulation, judged against a reference dose that is usually intravenous. By Cmax is commonly meant the maximum level reached in the sampled fluid or tissue. Broadly, the half-life is how long it takes for the measured level to halve. Take `O=C(O)COc1cccc2c1CC[C@](O)(COC(=O)N(c1ccc(F)cc1)c1ccc(F)cc1)C2`: the AUC in the data set with Rattus norvegicus [3] amounted to 1610 ng·h/mL. The clearance in data set [4] came out at 30.3 mL/min/kg. The bioavailability in [5] was determined as 29.5%. In addition, the Cmax in data set [6] stood at 575 ng/mL. In addition, the CLint scaled in data set [2] was found to be 4.6 mL/min/kg. In addition, the IC50 was 59 nM in the data set listed under Homo sapiens and more than 10000 nM in the data set listed under Rattus norvegicus [1]. In [7], this molecule had a half-life of 3 h.
As to `O=C(O)COc1cccc2c1CC[C@](O)(COC(=O)N(c1ccc(F)cc1)c1ccccc1F)C2`, the CLint scaled in data set [2] stood at 11.8 mL/min/kg. For the same molecule, the IC50 in the data set listed under Homo sapiens turned out to be 22 nM; in the data set listed under Rattus norvegicus [1], 5110 nM.
On to `O=C(O)COc1cccc2c1CC[C@](O)(COC(=O)N(c1ccccc1)c1ccccc1)[C@H]2O`, for which the IC50 in the data set listed under Homo sapiens was 1290 nM; in the data set filed under Rattus norvegicus [1], more than 10000 nM.
For `O=C(O)COc1cccc2c1CC[C@](O)(COC(=O)N(c1ccccc1)c1ccc(O)cc1)C2`, the Stability with Rattus norvegicus [8] is reported as 33%; in the data set with Rattus norvegicus [9] it was 12%. Moreover, the values for the IC50 in the data set filed under Homo sapiens and in the data set listed under Rattus norvegicus [1] were 35 nM and 2490 nM, respectively.
As to `O=C(O)COc1cccc2c1CC[C@](O)(COC(=O)N(c1cccc(F)c1)c1cccc(F)c1)C2`, the CLint scaled in [2] is 13.5 mL/min/kg. Moreover, the IC50 in the data set listed under Homo sapiens was 14 nM; in the data set listed under Rattus norvegicus [1] it was more than 10000 nM.
With `O=C(O)COc1cccc2c1CC[C@](O)(COC(=O)N(c1ccccc1)c1ccccc1)C2`, the AUC in the data set with Rattus norvegicus [3] stood at 601 ng·h/mL; in [13] it was 0.327 ng·h/mL. In [10], the half-life was 1.5 h. Moreover, the Cmax in [11] turned out to be 0.157 ng/mL; in data set [6], 282 ng/mL. Moreover, the bioavailability worked out at 9.6% in data set [5] and 55% in data set [14]. The blood plasma ratio in [12] stood at 0.57. In addition, the CLint scaled in data set [2] is 31.9 mL/min/kg. Further, the midpoint of inhibition in the data set filed under Homo sapiens, the IC50, lay at 18 nM.
On to `O=C(O)COc1cccc2c1CC[C@](O)(COC(=O)N(c1ccccc1)c1ccc(Br)cc1)C2`, for which, in data set [2], the CLint scaled came out at 12.3 mL/min/kg. Also, the IC50 in the data set listed under Homo sapiens came to 49 nM; in the data set filed under Rattus norvegicus [1], 6490 nM.
Consider `O=C(O)COc1cccc2c1CC[C@](O)(COC(=O)N(c1ccc(F)cc1)c1cccc(F)c1)C2`, for which the CLint scaled in [2] stood at 11.7 mL/min/kg. The IC50 was 25 nM in the data set filed under Homo sapiens and more than 10000 nM in the data set listed under Rattus norvegicus [1].
`O=C(O)COc1cccc2c1CC[C@](O)(COC(=O)N(c1ccccc1)c1ccc(F)cc1)C2`: the AUC with Rattus norvegicus [3] was determined as 961 ng·h/mL. Further, the clearance in [4] worked out at 32.9 mL/min/kg. Moreover, in [5], the bioavailability was 19.2%. In data set [6], the Cmax is 434 ng/mL. In [2], this molecule gave a CLint scaled of 10.3 mL/min/kg. Further, the IC50 is 13 nM in the data set filed under Homo sapiens and 4580 nM in the data set filed under Rattus norvegicus [1]. Further, in data set [7], the half-life was 1.6 h.
